Experimental data as given in patent US20090068243A1, “Novel formulations for delivery of antiviral peptide therapeutics” (priority 2007, published 2009).

Tests used:
[1] = Stability in aqueous solution (PBS), peptide remaining in solution by HPLC; format: physicochemical; settings: 10 mg/ml in PBS, about pH 7.3 to 7.5, 37° C., time point of 1 week
HIV-Res = format: cell-based, HIV-1; settings: resistant viral isolate "Res"
From the text: Assessment of biological properties included measurement of antiviral activity against HIV-1 strains. In determining antiviral activity (e.g., one measure being the ability to inhibit transmission of HIV to a target cell) of the HIV fusion inhibitor peptides, an in vitro assay which has been shown, by data generated using peptides derived from the HR regions of HIV gp41, to be predictive of antiviral activity observed in vivo was used. […] These assays score for reduction of infectious virus titer employing the indicator cell lines MAGI or the CCR5 expressing derivative cMAGI. Both cell lines exploit the ability of HIV-1 tat to transactivate the expression of a β-galactosidase reporter gene driven by the HIV-LTR. The β-gal reporter has been modified to localize in the nucleus and can be detected with the X-gal substrate as intense nuclear staining within a few days of infection. […] The number of infected cells for each control and peptide dilution was determined with the CCD-imager, and then the IC50 was calculated (expressed in μg/ml).
Viruses resistant to the antiviral activity of a peptide consisting of a base sequence can be produced using standard laboratory methods. […] The cultures are maintained and monitored until syncytia are present. […] The second round of culture is maintained and monitored for presence of virus resistant to the antiviral activity of the peptide. […]

For “Ac-TTWEAWDRAIAEYAARIEALLRALQEQQEKNEAALREL-NH2 [SEQ ID NO:9, TTWEAWDRAIAEYAARIEALLRALQEQQEKNEAALREL]”, the “peptide remaining detectable in solution” value [1] was no less than 90% and the “Antiviral Activity (μg/ml) HIV-Res IC50” value (HIV-Res) was less than 0.10 µg/mL.
